Where two headings read alike, the source gives them in different places.
Legend:
CDK1-cyclin B complex = details: cited from earlier work; for IC50: values marked a: L. Meijer et al., unpublished
GSK-3 = details: study cited did not specify which isoform(s) was tested; value marked a: L. Meijer et al., unpublished; read-out: IC50 GSK-α and GSK-3β, isoform not specified; cited from earlier work
CDK2 and CDK5 = details: printed in the CDK1-cyclin B column with note (CDK2 and CDK5); cited from earlier work
Murine MAPCs [1] = assay: MAPC culture with BIO, morphology (clustering); type: cell-based, mouse; details: 0.1-2 microM BIO; from 4 days after treatment; at both cell densities
Murine MAPCs [2] = assay: Immunohistochemistry of MAPCs treated with BIO; type: cell-based, mouse
Murine MAPCs [3] = assay: Quantitative RT-PCR of MAPCs treated with BIO; type: cell-based, mouse
[4] = system: human embryonic stem (ES) cells; details: substitutes for feeder cultures or exogenous cytokines; expression of Oct-3a, Rex-1 and Nanog; cited from earlier work
[5] = system: mouse embryonic stem (ES) cells; details: substitutes for feeder cultures or exogenous cytokines; expression of Oct-3a, Rex-1 and Nanog; cited from earlier work
[6] = system: GSK-3 (α/β) mixture of isoforms; details: cited from earlier work
GSK-3β = GSK-3β (Homo sapiens, UniProt P49841)
GSK-3β, sequence (P49841 whole entry, species assumed): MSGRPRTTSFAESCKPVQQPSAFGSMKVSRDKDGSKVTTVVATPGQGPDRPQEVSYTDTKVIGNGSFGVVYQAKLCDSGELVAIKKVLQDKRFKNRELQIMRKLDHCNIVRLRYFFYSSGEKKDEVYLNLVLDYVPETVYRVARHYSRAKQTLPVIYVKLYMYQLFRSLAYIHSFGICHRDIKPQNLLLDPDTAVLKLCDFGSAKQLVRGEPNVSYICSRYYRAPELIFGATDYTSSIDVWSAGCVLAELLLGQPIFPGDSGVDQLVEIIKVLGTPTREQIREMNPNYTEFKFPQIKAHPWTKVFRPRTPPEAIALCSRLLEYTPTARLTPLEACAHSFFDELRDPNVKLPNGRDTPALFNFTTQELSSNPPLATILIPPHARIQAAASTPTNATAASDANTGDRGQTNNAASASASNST

[7] = system: mouse mesodermal stem cell line differentiated into a myoblastic lineage; details: Chen, S., et al. (2003); cited from earlier work
GSK-3α = GSK-3α (Homo sapiens, UniProt P49840); details: cited from earlier work
GSK-3α, sequence (P49840 whole entry, species assumed): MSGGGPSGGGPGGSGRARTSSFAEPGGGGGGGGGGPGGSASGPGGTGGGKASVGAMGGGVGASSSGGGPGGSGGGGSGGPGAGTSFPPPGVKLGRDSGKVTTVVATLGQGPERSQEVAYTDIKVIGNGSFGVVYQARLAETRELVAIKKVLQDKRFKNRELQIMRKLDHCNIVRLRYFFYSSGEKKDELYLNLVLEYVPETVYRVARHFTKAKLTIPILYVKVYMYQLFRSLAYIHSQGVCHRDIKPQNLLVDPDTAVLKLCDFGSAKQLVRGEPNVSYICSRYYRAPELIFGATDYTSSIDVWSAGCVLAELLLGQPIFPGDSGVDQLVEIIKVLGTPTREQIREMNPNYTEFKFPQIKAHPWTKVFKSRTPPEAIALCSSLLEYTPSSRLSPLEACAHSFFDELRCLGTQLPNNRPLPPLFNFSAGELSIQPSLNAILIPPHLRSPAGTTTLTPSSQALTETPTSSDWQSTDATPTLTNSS

[8] = MAPCs maintained at low density
[9] = high concentration of BIO, MAPCs maintained at low density
[10] = mixture of isoforms tested, values marked a: L. Meijer et al., unpublished

Molecule: CC(=O)ON=C1C(=C2C(=O)Nc3cc(Br)ccc32)Nc2ccccc21 [6-Bromoindirubin-3′-acetoxime]
- IC50 (CDK1-cyclin B complex): 63000 nM
- IC50 (GSK-3): 10 nM

Molecule: COc1ccc(CNC(=O)Nc2ncc([N+](=O)[O-])s2)cc1 [ARA014418]
- IC50 (CDK2 and CDK5): > 100000 nM

Molecule: O=C1Cc2c([nH]c3ccc(Br)cc23)-c2ncccc2N1 [Azakenpaullone]
- IC50 (CDK1-cyclin B complex): 2000 nM

Molecule: O=C1Nc2cc(Br)ccc2/C1=C1/Nc2ccccc2/C1=N\O [BIO, 6-bromoindirubin-3′-oxime]
- clustering of MAPC (Murine MAPCs [1]): dose-dependent clustering
- Oct-4, β-catenin and E-cadherin protein expression in large dense MAPC clusters (Murine MAPCs [2]; high density (ESC densities), 1 or 2 microM BIO): very high levels
- Oct-4, β-catenin and E-cadherin protein expression in clusters (Murine MAPCs [2]; low-density MAPCs, 2 microM BIO): highly expressed
- Oct-4 mRNA levels (Murine MAPCs [3]; [8]): decreased in a BIO dose-dependent manner
- Rex-1 mRNA levels (Murine MAPCs [3]; [8]): decreased in a BIO dose-dependent manner
- AFP levels (Murine MAPCs [3]; [9]): higher levels of AFP
- Sox1 levels (Murine MAPCs [3]; [9]): higher levels
- endothelial specific genes (for example, vWF) levels (Murine MAPCs [3]; low concentration of BIO, MAPCs maintained at low density): higher levels of endothelial specific genes
- UTF1 or E-Ras expression (Murine MAPCs [3]; mRNA, Q-RT-PCR): did not affect
- maintenance of undifferentiated pluripotent state, human ES cells [4]: maintaining the ES cultures in an undifferentiated pluripotent state
- maintenance of undifferentiated pluripotent state, mouse ES cells [5]: maintaining the ES cultures in an undifferentiated pluripotent state

Molecule: [Be+2] [Beryllium]
- Effect on CDK1-cyclin B complex (CDK1-cyclin B complex): Inhibits CDK1
- IC50 (GSK-3): 6000 nM

Molecule: OCCCNc1cc(-c2ccnc(Nc3cccc(Cl)c3)n2)ccn1 [CGP60474]
- IC50 (GSK-3): 10 nM

Molecule: CN1CCN(c2cnc(NCCNc3ccc([N+](=O)[O-])c(N)n3)nc2-c2ccc(Cl)cc2Cl)C(=O)C1 [CT20026]
- IC50 [6, 10]: 4 nM

Molecule: CN1CC[C@H](c2c(O)cc(O)c3c(=O)cc(-c4ccccc4Cl)oc23)[C@H](O)C1 [Flavopiridol]
- IC50 (GSK-3): 450 nM

Molecule: CN(C)CCCn1cc(C2=C(c3c[nH]c4ccccc34)C(=O)NC2=O)c2ccccc21 [GF109203x, bisindolyl-maleimide I]
- IC50 (CDK1-cyclin B complex): 2300 nM
- IC50 (GSK-3β; β isoform tested; from Meijer, L. et al. (2004); read-out: IC50 GSK-3 (β); cited from earlier work): 190 nM

Molecule: Cn1cc(C2=C(c3cn(CCCSC(=N)N)c4ccccc34)C(=O)NC2=O)c2ccccc21 [Ro318220, bisindolyl-maleimide IX]
- IC50 (GSK-3β; read-out: IC50 GSK-3 (β); β isoform tested; from Meijer, L. et al. (2004); cited from earlier work): 3 to 38 nM

Molecule: Cn1cc(C2=C(c3ccc(Cl)cc3Cl)C(=O)NC2=O)c2ccccc21 [SB216763]
- IC50 (CDK1-cyclin B complex): 550 nM

Molecule: O=C1NC(=O)C(c2ccccc2[N+](=O)[O-])=C1Nc1ccc(O)c(Cl)c1 [SB415286]
- IC50 (CDK1-cyclin B complex): 900 nM

Molecule: COc1ccc2c(c1)/C(=C/c1cnc[nH]1)C(=O)N2 [SU9516]
- IC50 (GSK-3): 330 nM

Molecule: Cn1sc(=O)n(Cc2ccccc2)c1=O [TDZD8]
- IC50 [6, 10]: 7000 nM

Molecule: Nc1cccc(-c2cc3c(Oc4cccc(O)c4)ncnc3[nH]2)c1 [TWS119]
- IC50 (GSK-3β; read-out: IC50 GSK-3 (β); cited from earlier work): 30 nM

Molecule: [Zn] [Zinc]
- Effect on CDK1-cyclin B complex (CDK1-cyclin B complex): No effect
- IC50 (GSK-3): 15000 nM

Molecule: c1nc2nc(Nc3ccc(N4CCOCC4)cc3)nc(NC3CCCCC3)c2[nH]1 [reversine]
- effect on committed myoblast [7]: de-differentiate

Molecule: Aloisine B
- IC50 (CDK1-cyclin B complex): 850 nM
- IC50 (GSK-3): 750 nM

Molecule: CHIR98014
- IC50 (GSK-3α): 0.65 nM
- IC50 (CDK1-cyclin B complex): 3700 nM
- IC50 [6]: 0.58 nM

Reference: US20080194024A1, “Culture of Non-Embryonic Cells at High Cell Density” (priority 2005, published 2008)
